Results reported in patent US20100152434A1, “Protein Kinase-binding Nucleosides and Associated Methods” (priority 2007, published 2010).
Read-outs that look alike come from different tables or passages of the source.

How the values were obtained:
NCI-H322M [1] = experiment: cells; conditions: Homo sapiens, NCI-H322M
NCI/ADR-RES = conditions: NCI/ADR-RES
OVCAR-3 = experiment: cells; conditions: Homo sapiens
A549/ATCC = experiment: cells; conditions: Homo sapiens
HCC-2998 = conditions: HCC-2998
HOP-92 = experiment: cells; conditions: Homo sapiens
RPMI-8226 = experiment: cells; conditions: Homo sapiens
SK-MEL-28 = experiment: cells; conditions: Homo sapiens
HS 578T = experiment: cells; conditions: Homo sapiens
KM12 = experiment: cells; conditions: Homo sapiens
HT29 = experiment: cells; conditions: Homo sapiens
ACHN [2] = test system: ACHN
NCI-H322M [3] = conditions: NCI-H322M
HCT-116 = experiment: cells; conditions: Homo sapiens
MDA-MB-435 = experiment: cells; conditions: Homo sapiens
HL-60(TB) = experiment: cells; conditions: Homo sapiens
SK-MEL-5 = experiment: cells; conditions: Homo sapiens
SF-539 [4] = test system: SF-539
SF-539 [5] = experiment: cells; conditions: Homo sapiens
ACHN [6] = experiment: cells; conditions: Homo sapiens

With `CNC(=O)NC[C@H]1O[C@@H](n2cnc3c(NC(=O)Nc4ccccc4)ncnc32)[C@H](O[Si](C)(C)C(C)(C)C)[C@@H]1CC(=O)N(C)OC` [Compound 13, 2′-O-(tert-Butyldimethylsilyl)-3′,5′-dideoxy-3′-[(N-methoxy-N-methylcarboxamido)methyl]-5′-[(N-methylcarbamoyl)amino]-N^6-(N-phenylcarbamoyl)adenosine] the TGI (CCRF-CEM) was greater than 1.00E−4 Molar, the “Percent Growth” value (CCRF-CEM; Log10 Concentration −4.0) was 23% and the “Percent Growth” value (CCRF-CEM; Log10 Concentration −5.0) was 39%. The “Percent Growth” value (CCRF-CEM; Log10 Concentration −6.0) was 96%, the “Percent Growth” value (CCRF-CEM; Log10 Concentration −7.0) was 100% and the “Percent Growth” value (CCRF-CEM; Log10 Concentration −8.0) was 101%. It also gave a GI50 (NCI-H322M [1]) greater than 100 µM, a CC50 (NCI-H322M [1]; read-out: LC50) greater than 100 µM and a TGI (NCI/ADR-RES) greater than 1.00E−4 Molar. The “Percent Growth” value (NCI/ADR-RES; Log10 Concentration −4.0) was 55%, the “Percent Growth” value (NCI/ADR-RES; Log10 Concentration −5.0) was 76% and the “Percent Growth” value (NCI/ADR-RES; Log10 Concentration −6.0) was 105%. The “Percent Growth” value (NCI/ADR-RES; Log10 Concentration −7.0) was 109%, the “Percent Growth” value (NCI/ADR-RES; Log10 Concentration −8.0) was 109% and the GI50 (OVCAR-3; OVCAR-3) was 7.11 µM. The CC50 (OVCAR-3; OVCAR-3, read-out: LC50) was greater than 100 µM, the TGI (COLO 205) was greater than 1.00E−4 Molar and the “Percent Growth” value (COLO 205; Log10 Concentration −4.0) was 1%. For the same molecule, the “Percent Growth” value (COLO 205; Log10 Concentration −5.0) was 55%, the “Percent Growth” value (COLO 205; Log10 Concentration −6.0) was 90% and the “Percent Growth” value (COLO 205; Log10 Concentration −7.0) was 93%. For the same molecule, the “Percent Growth” value (COLO 205; Log10 Concentration −8.0) was 97%, the GI50 (A549/ATCC; A549) was 9.35 µM and the CC50 (A549/ATCC; A549, read-out: LC50) was greater than 100 µM. The TGI (SR) was 3.46E−6 Molar, the “Percent Growth” value (SR; Log10 Concentration −4.0) was −56% and the “Percent Growth” value (SR; Log10 Concentration −5.0) was −53%. For the same molecule, the “Percent Growth” value (SR; Log10 Concentration −6.0) was 62%, the “Percent Growth” value (SR; Log10 Concentration −7.0) was 89% and the “Percent Growth” value (SR; Log10 Concentration −8.0) was 85%. For the same molecule, the TGI (HCC-2998) was greater than 1.00E−4 Molar, the “Percent Growth” value (HCC-2998; Log10 Concentration −4.0) was 33% and the “Percent Growth” value (HCC-2998; Log10 Concentration −5.0) was 66%. For the same molecule, the “Percent Growth” value (HCC-2998; Log10 Concentration −6.0) was 100%, the “Percent Growth” value (HCC-2998; Log10 Concentration −7.0) was 97% and the “Percent Growth” value (HCC-2998; Log10 Concentration −8.0) was 102%. It also gave a GI50 (HOP-92; HOP-92) of 2.71 µM, a CC50 (HOP-92; HOP-92, read-out: LC50) greater than 100 µM and a GI50 (RPMI-8226; RPMI-8226) of 1.58 µM. For the same molecule, the CC50 (RPMI-8226; RPMI-8226, read-out: LC50) was greater than 100 µM, the TGI (DU-145) was greater than 1.00E−4 Molar and the “Percent Growth” value (DU-145; Log10 Concentration −4.0) was 16%. For the same molecule, the “Percent Growth” value (DU-145; Log10 Concentration −5.0) was 60%, the “Percent Growth” value (DU-145; Log10 Concentration −6.0) was 104% and the “Percent Growth” value (DU-145; Log10 Concentration −7.0) was 112%. For the same molecule, the “Percent Growth” value (DU-145; Log10 Concentration −8.0) was 107%, the GI50 (SK-MEL-28; SK-MEL-28) was 7.77 µM and the CC50 (SK-MEL-28; SK-MEL-28, read-out: LC50) was greater than 100 µM. For the same molecule, the GI50 (HS 578T) was 5.79 µM, the CC50 (HS 578T; read-out: LC50) was greater than 100 µM and the GI50 (KM12; KM12) was 23.9 µM. The CC50 (KM12; KM12, read-out: LC50) was greater than 100 µM, the GI50 (HT29; HT-29) was 5.37 µM and the CC50 (HT29; HT-29, read-out: LC50) was greater than 100 µM. For the same molecule, the TGI (EKVX) was greater than 1.00E−4 Molar, the “Percent Growth” value (EKVX; Log10 Concentration −4.0) was 36% and the “Percent Growth” value (EKVX; Log10 Concentration −5.0) was 60%. For the same molecule, the “Percent Growth” value (EKVX; Log10 Concentration −6.0) was 95%, the “Percent Growth” value (EKVX; Log10 Concentration −7.0) was 95% and the “Percent Growth” value (EKVX; Log10 Concentration −8.0) was 94%. For the same molecule, the TGI (ACHN [2]) was greater than 1.00E−4 Molar, the “Percent Growth” value (ACHN [2]; Log10 Concentration −4.0) was 23% and the “Percent Growth” value (ACHN [2]; Log10 Concentration −5.0) was 55%. The “Percent Growth” value (ACHN [2]; Log10 Concentration −6.0) was 95%, the “Percent Growth” value (ACHN [2]; Log10 Concentration −7.0) was 102% and the “Percent Growth” value (ACHN [2]; Log10 Concentration −8.0) was 107%. The TGI (NCI-H322M [3]) was greater than 1.00E−4 Molar, the “Percent Growth” value (NCI-H322M [3]; Log10 Concentration −4.0) was 73% and the “Percent Growth” value (NCI-H322M [3]; Log10 Concentration −5.0) was 90%. The “Percent Growth” value (NCI-H322M [3]; Log10 Concentration −6.0) was 102%, the “Percent Growth” value (NCI-H322M [3]; Log10 Concentration −7.0) was 98% and the “Percent Growth” value (NCI-H322M [3]; Log10 Concentration −8.0) was 97%. The GI50 (HCT-116; HCT-116) was 4.2 µM, the CC50 (HCT-116; HCT-116, read-out: LC50) was greater than 100 µM and the GI50 (MDA-MB-435; MDA-MB-435) was 10.9 µM. It also gave a CC50 (MDA-MB-435; MDA-MB-435, read-out: LC50) greater than 100 µM, a GI50 (HL-60(TB); HL-60) of 1.81 µM and a CC50 (HL-60(TB); HL-60, read-out: LC50) of 16.4 µM. The TGI (NCI-H460) was greater than 1.00E−4 Molar, the “Percent Growth” value (NCI-H460; Log10 Concentration −4.0) was 25% and the “Percent Growth” value (NCI-H460; Log10 Concentration −5.0) was 44%. For the same molecule, the “Percent Growth” value (NCI-H460; Log10 Concentration −6.0) was 90%, the “Percent Growth” value (NCI-H460; Log10 Concentration −7.0) was 93% and the “Percent Growth” value (NCI-H460; Log10 Concentration −8.0) was 96%. For the same molecule, the GI50 (SK-MEL-5; SK-MEL-5) was 5.81 µM, the CC50 (SK-MEL-5; SK-MEL-5, read-out: LC50) was greater than 100 µM and the TGI (SF-539 [4]) was greater than 1.00E−4 Molar. The “Percent Growth” value (SF-539 [4]; Log10 Concentration −4.0) was 23%, the “Percent Growth” value (SF-539 [4]; Log10 Concentration −5.0) was 65% and the “Percent Growth” value (SF-539 [4]; Log10 Concentration −6.0) was 89%. For the same molecule, the “Percent Growth” value (SF-539 [4]; Log10 Concentration −7.0) was 94%, the “Percent Growth” value (SF-539 [4]; Log10 Concentration −8.0) was 96% and the GI50 (SF-539 [5]; SF-539) was 22.3 µM. It also gave a CC50 (SF-539 [5]; SF-539, read-out: LC50) greater than 100 µM, a GI50 (ACHN [6]) of 14.4 µM and a CC50 (ACHN [6]; read-out: LC50) greater than 100 µM.
